Reference: patent publication US10988523B2, “Modified lipidated Relaxin B chain peptides and their therapeutic use” (Sanofi, priority 2018, dated 2021)
*1 amine or outer side, *2 acyl side, *3 side chain or, on linkers, in order; H or OH if unused. Where a SMILES comes first, the peptide text is derived from it. Side-chain parts run from the residue outwards. [ ]: non-standard residue; d: D form. The star is where a group is joined. X5 = CCCCCCCCCCCCCCCC(=O)N[C@@H](CCC(=O)NCCCC[C@H](NC(=O)CC[C@H](NC(=O)CC[C@H](NC(=O)CC[C@H](NC(=O)CCC(=O)NCCCOCCOCCOCCCNC(=O)CCC(=O)NCCCOCCOCCOCCCN*)C(=O)O)C(=O)O)C(=O)O)C(N)=O)C(=O)O; PEG12 = NCCOCCOCCOCCOCCOCCOCCOCCOCCOCCOCCOCCOCCC(=O)O; γGlu = O=C(O)[C@H](CCC(=O)[*:2])N[*:1]; Stearoyl = CCCCCCCCCCCCCCCCCC(=O)*; Palmitoyl = CCCCCCCCCCCCCCCC(=O)*; αMeK = C[C@](N)(CCCCN)C(=O)O; Nle = CCCC[C@H](N)C(=O)O; AEEA = NCCOCCOCC(=O)O; Aib = CC(C)(N)C(=O)O

Experiments:
[1] = Pharmacokinetic (PK) determination after i.v. or s.c. administration to rats; assay type: in vivo, Sprague Dawley rats; conditions: Sprague Dawley, Rat PK; for C0 / half-life: iv, 1 mg/kg i.v.; for C0: extrapolated plasma concentration at t=0, read-out: C0; for half-life / Cmax / Tmax / bioavailability: plasma; for half-life: read-out: T½ (converted); for Cmax / Tmax: sc, 3 mg/kg s.c.; for bioavailability: subcutaneous, 3 mg/kg s.c. vs 1 mg/kg i.v., dose-corrected AUC ratio
Experimental: Prior to the testing of a peptide batch, its purity (HPLC-UV) was determined. Dose was corrected for presence of salts, solvent and purity.
Sprague Dawley rats were dosed with study peptide at a dose of 1 mg/kg intravenously (i.v.) or 3 mg/kg subcutaneously (s.c.) as a solution in PBS (0.2 mg/ml and 0.6 mg/ml respectively).
Plasma samples were analyzed after protein precipitation via liquid chromatography mass spectrometry (LC/MS).
PK parameters and half-life were calculated using Phoenix 64 (WinNonlin 6.4)-Pharsight (Certara™) (non-compartment model). Values below the limit of quantification (BLQ) were replaced by zero for subsequent calculations and PK analysis.
T½: in-vivo half life, time required for test compound plasma concentration to be divided by two during the PK experiment.
C0: Extrapolated test compound plasma concentration at t=0 time point (i.v. route).
Cmax: maximal test compound plasma concentration at the indicated time point (s.c. route).
Tmax: Time point where Cmax is attained.
F %: s.c. vs i.v. bioavailability, dose-corrected area under curve (AUC) s.c. route divided by AUC i.v.

RXFP1 = molecular target: T1, RXFP1 (Homo sapiens, UniProt Q9HBX9); assay: OVCAR5 cAMP assay (HTRF), RXFP1 agonist activity; assay type: cell-based; conditions: for EC50: OVCAR5 cells, cAMP HTRF, read-out: EC50 (nM), OVCAR 5 cells (cAMP); for Emax: OVCAR-5, maximal cAMP relative to H2-relaxin maximum (100%), read-out: EMax, OVCAR 5 cells (cAMP)
T1 construct: OVCAR5 cells expressing endogenous RXFP1; endogenous in cells; host or cells: OVCAR5 cells
T1 sequence (Q9HBX9 1-757): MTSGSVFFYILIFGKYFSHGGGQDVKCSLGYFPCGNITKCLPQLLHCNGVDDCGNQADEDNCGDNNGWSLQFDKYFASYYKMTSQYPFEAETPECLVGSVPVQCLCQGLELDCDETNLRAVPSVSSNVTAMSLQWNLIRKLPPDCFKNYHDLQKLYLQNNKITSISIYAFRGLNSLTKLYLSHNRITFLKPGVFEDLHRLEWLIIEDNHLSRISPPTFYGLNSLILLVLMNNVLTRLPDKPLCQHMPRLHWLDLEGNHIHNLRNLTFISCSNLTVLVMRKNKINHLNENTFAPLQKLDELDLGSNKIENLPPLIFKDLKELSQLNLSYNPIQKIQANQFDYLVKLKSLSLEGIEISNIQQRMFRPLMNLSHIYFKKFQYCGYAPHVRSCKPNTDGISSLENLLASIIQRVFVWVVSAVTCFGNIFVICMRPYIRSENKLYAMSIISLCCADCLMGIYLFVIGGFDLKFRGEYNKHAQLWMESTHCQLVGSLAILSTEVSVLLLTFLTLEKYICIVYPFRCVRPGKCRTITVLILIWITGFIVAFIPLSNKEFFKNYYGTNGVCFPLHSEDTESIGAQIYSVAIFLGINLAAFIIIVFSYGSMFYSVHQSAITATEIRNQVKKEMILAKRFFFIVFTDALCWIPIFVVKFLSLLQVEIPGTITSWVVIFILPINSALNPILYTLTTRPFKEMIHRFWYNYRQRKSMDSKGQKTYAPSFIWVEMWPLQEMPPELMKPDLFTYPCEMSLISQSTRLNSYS
Method in brief: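 cAMP accumulation readout: after 1 mM IBMX for 40 min, endogenous-RXFP1 OVCAR5 cells got rising peptide concentrations without FCS, 30 min, 37° C, then lysis with HTRF cAMP reagents. Nonlinear regression gave EC50; Emax expressed relative to H2-relaxin maximum, same occasion.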

SMILES	C0 [1] [nM]	half-life [1] [h]	Cmax [1] [nM]	Tmax [1] [h]	bioavailability [1] [%]	EC50 (RXFP1) [nM]	Emax (RXFP1) [%]
CCCCCCCCCCCCCCCC(=O)N[C@@H](CCC(=O)N[C@@H](CCC(=O)N[C@@H](CCC(=O)N[C@@H](CCC(=O)NCCCC[C@H](NC(=O)COCCOCCNC(=O)COCCOCCNC(=O)COCCOCCNC(=O)[C@H](CCCCNC(C)=O)NC(=O)[C@H](CCCCN)NC(=O)[C@H](CCCNC(=N)N)NC(=O)[C@](C)(CCCCN)NC(=O)[C@H](CO)NC(=O)[C@H](Cc1c[nH]c2ccccc12)NC(=O)[C@@H](NC(=O)[C@H](CO)NC(=O)[C@H](CCCC)NC(=O)CNC(=O)[C@H](CCC(=O)O)NC(=O)C(C)(C)NC(=O)C(C)(C)NC(=O)[C@@H](NC(=O)[C@H](CCCCNC(C)=O)NC(=O)[C@H](C)NC(=O)[C@H](CCCNC(=N)N)NC(=O)[C@@H](NC(=O)[C@H](CCCCN)NC(=O)[C@H](CCC(=O)O)NC(=O)[C@H](CCCNC(=N)N)NC(=O)CNC(=O)[C@H](CCC(=O)O)NC(=O)[C@H](CC(C)C)NC(C)=O)C(C)C)[C@@H](C)CC)[C@@H](C)O)C(N)=O)C(=O)O)C(=O)O)C(=O)O)C(=O)O [compound 17] (Ac-LEGREKVRAK(Ac)I[Aib][Aib]EG[Nle]STWS[αMeK]RKK(Ac)[AEEA][AEEA][AEEA]K([γGlu-γGlu-γGlu-γGlu-Palmitoyl])-NH2)	3500	5.8	2400	8	73	0.17	95
CCCCCCCCCCCCCCCCCC(=O)N[C@@H](CCC(=O)N[C@@H](CCC(=O)N[C@@H](CCC(=O)NCCOCCOCC(=O)NCCOCCOCC(=O)NCCOCCOCC(=O)NCCCC[C@H](NC(=O)[C@H](CCCCNC(C)=O)NC(=O)[C@H](CCCCN)NC(=O)[C@H](CCCNC(=N)N)NC(=O)C(C)(C)NC(=O)[C@H](CO)NC(=O)[C@H](Cc1ccccc1)NC(=O)[C@@H](NC(=O)[C@H](CO)NC(=O)[C@H](CCCC)NC(=O)CNC(=O)[C@H](CCC(=O)O)NC(=O)C(C)(C)NC(=O)C(C)(C)NC(=O)[C@@H](NC(=O)[C@H](CCCCNC(C)=O)NC(=O)[C@H](C)NC(=O)[C@H](CCCNC(=N)N)NC(=O)[C@@H](NC(=O)[C@H](CCCCN)NC(=O)[C@H](CCC(=O)O)NC(=O)[C@H](CCCNC(=N)N)NC(=O)CNC(=O)[C@H](CCC(=O)O)NC(=O)[C@H](CC(C)C)NC(C)=O)C(C)C)[C@@H](C)CC)[C@@H](C)O)C(N)=O)C(=O)O)C(=O)O)C(=O)O [compound 112] (Ac-LEGREKVRAK(Ac)I[Aib][Aib]EG[Nle]STFS[Aib]RKK(Ac)K([AEEA-AEEA-AEEA-γGlu-γGlu-γGlu-Stearoyl])-NH2)	3500	3.3	2200	8	63	0.32	88
CCCCCCCCCCCCCCCC(=O)N[C@@H](CCC(=O)N[C@@H](CCC(=O)N[C@@H](CCC(=O)NCCCC[C@H](NC(=O)CCOCCOCCOCCOCCOCCOCCOCCOCCOCCOCCOCCOCCNC(=O)[C@H](CCCCN)NC(=O)[C@H](CCCNC(=N)N)NC(=O)C(C)(C)NC(=O)[C@H](CO)NC(=O)[C@H](Cc1c[nH]c2ccccc12)NC(=O)[C@@H](NC(=O)[C@H](CO)NC(=O)[C@H](CCCC)NC(=O)CNC(=O)[C@H](CCC(=O)O)NC(=O)C(C)(C)NC(=O)C(C)(C)NC(=O)[C@@H](NC(=O)[C@H](CCCCNC(C)=O)NC(=O)[C@H](C)NC(=O)[C@H](CCCNC(=N)N)NC(=O)[C@@H](NC(=O)[C@H](CCCCN)NC(=O)[C@H](CCC(=O)O)NC(=O)[C@H](CCCNC(=N)N)NC(=O)CNC(=O)[C@H](CCC(=O)O)NC(=O)[C@H](CC(C)C)NC(C)=O)C(C)C)[C@@H](C)CC)[C@@H](C)O)C(N)=O)C(=O)O)C(=O)O)C(=O)O [compound 38] (Ac-LEGREKVRAK(Ac)I[Aib][Aib]EG[Nle]STWS[Aib]RK[PEG12]K([γGlu-γGlu-γGlu-Palmitoyl])-NH2)	4370	7.16	2500	8	79	0.21	89

Molecules with a lower EC50 (RXFP1), results first:

C0 [1] [nM]	half-life [1] [h]	Cmax [1] [nM]	Tmax [1] [h]	bioavailability [1] [%]	EC50 (RXFP1) [nM]	Emax (RXFP1) [%]	SMILES
4250	1.16	1450	8	78	0.08	80	CCCCCCCCCCCCCCCCCC(=O)N[C@@H](CCC(=O)NCCOCCOCC(=O)N[C@@H](CCC(=O)N[C@@H](CCC(=O)N[C@@H](CCC(=O)NCCOCCOCC(=O)NCCOCCOCC(=O)NCCCC[C@H](NC(=O)[C@H](CCCCN)NC(=O)[C@H](CCCCN)NC(=O)[C@H](CCCNC(=N)N)NC(=O)C(C)(C)NC(=O)[C@H](CO)NC(=O)[C@H](Cc1c[nH]c2ccccc12)NC(=O)[C@@H](NC(=O)[C@H](CO)NC(=O)[C@H](CCCC)NC(=O)CNC(=O)[C@H](CCC(=O)O)NC(=O)C(C)(C)NC(=O)C(C)(C)NC(=O)[C@@H](NC(=O)[C@H](CCCCNC(C)=O)NC(=O)[C@H](C)NC(=O)[C@H](CCCNC(=N)N)NC(=O)[C@@H](NC(=O)[C@H](CCCCN)NC(=O)[C@H](CCC(=O)O)NC(=O)[C@H](CCCNC(=N)N)NC(=O)CNC(=O)[C@H](CCC(=O)O)NC(=O)[C@H](CC(C)C)NC(C)=O)C(C)C)[C@@H](C)CC)[C@@H](C)O)C(N)=O)C(=O)O)C(=O)O)C(=O)O)C(=O)O [compound 102] (Ac-LEGREKVRAK(Ac)I[Aib][Aib]EG[Nle]STWS[Aib]RKKK([AEEA-AEEA-γGlu-γGlu-γGlu-AEEA-γGlu-Stearoyl])-NH2)
2600	3.4	1200	7	114	0.02	89	CCCCCCCCCCCCCCCCCC(=O)N[C@@H](CCC(=O)N[C@@H](CCC(=O)N[C@@H](CCC(=O)N[C@@H](CCC(=O)NCCOCCOCC(=O)NCCOCCOCC(=O)NCCOCCOCC(=O)NCCCC[C@H](NC(=O)[C@H](CCCCNC(C)=O)NC(=O)[C@H](CCCCN)NC(=O)[C@H](CCCNC(=N)N)NC(=O)[C@](C)(CCCCN)NC(=O)[C@H](CO)NC(=O)[C@H](Cc1c[nH]c2ccccc12)NC(=O)[C@@H](NC(=O)[C@H](CO)NC(=O)[C@H](CCCC)NC(=O)CNC(=O)[C@H](CCC(=O)O)NC(=O)C(C)(C)NC(=O)C(C)(C)NC(=O)[C@@H](NC(=O)[C@H](CCCCNC(C)=O)NC(=O)[C@H](C)NC(=O)[C@H](CCCNC(=N)N)NC(=O)[C@@H](NC(=O)[C@H](CCCCN)NC(=O)[C@H](CCC(=O)O)NC(=O)[C@H](CCCNC(=N)N)NC(=O)CNC(=O)[C@H](CCC(=O)O)NC(=O)[C@H](CC(C)C)NC(C)=O)C(C)C)[C@@H](C)CC)[C@@H](C)O)C(N)=O)C(=O)O)C(=O)O)C(=O)O)C(=O)O [compound 82] (Ac-LEGREKVRAK(Ac)I[Aib][Aib]EG[Nle]STWS[αMeK]RKK(Ac)K([AEEA-AEEA-AEEA-γGlu-γGlu-γGlu-γGlu-Stearoyl])-NH2)
4350	6.69	1510	8	59	0.02	89	CCCCCCCCCCCCCCCC(=O)N[C@@H](CCC(=O)NCCCC[C@H](NC(=O)CC[C@H](NC(=O)CC[C@H](NC(=O)CC[C@H](NC(=O)CCC(=O)NCCCOCCOCCOCCCNC(=O)CCC(=O)NCCCOCCOCCOCCCNC(=O)[C@H](CCCCNC(C)=O)NC(=O)[C@H](C)NC(=O)[C@H](CCCNC(=N)N)NC(=O)[C@](C)(CCCCN)NC(=O)[C@H](CO)NC(=O)[C@H](Cc1ccccc1)NC(=O)[C@@H](NC(=O)[C@H](CO)NC(=O)[C@H](CCCC)NC(=O)CNC(=O)[C@H](CCC(=O)O)NC(=O)C(C)(C)NC(=O)C(C)(C)NC(=O)[C@@H](NC(=O)[C@H](CCCCNC(C)=O)NC(=O)[C@H](C)NC(=O)[C@H](CCCNC(=N)N)NC(=O)[C@@H](NC(=O)[C@H](CCCCN)NC(=O)[C@H](CCC(=O)O)NC(=O)[C@H](CCCNC(=N)N)NC(=O)CNC(=O)[C@H](CCC(=O)O)NC(=O)[C@H](CC(C)C)NC(C)=O)C(C)C)[C@@H](C)CC)[C@@H](C)O)C(=O)O)C(=O)O)C(=O)O)C(N)=O)C(=O)O [compound 157] (Ac-LEGREKVRAK(Ac)I[Aib][Aib]EG[Nle]STFS[αMeK]RAK(Ac)-X5)
